Experimental data reported in patent publication US9279004B2, “Synthetic PnTx(19) peptide, pharmaceutical compositions and use” (priority 2012, dated 2016).

Columns and labels:
[1] = system: strips of cavernous body isolated from mice; experiment: Relaxation of cavernous-body strips pre-contracted with phenylephrine; details: acetylcholine 10^-4 M (control); pre-contracted by phenylephrine 10^-5 M
Text: FIG. 5—Effects of the toxin PnTx2-6 and of the peptide PnTx(19) (1×10^-6M) on the relaxation of strips of cavernous goodies of mice. The strips were pre-contracted with phenylefrine (10^-5 M) and relaxed with acetylcholine (10^-4M)-control, PnTx2-6 (5×10^-8M) and PnTx(19) (x10-6 M) (n=3).
Mice were sacrificed by decapitation, their penis were removed surgically and placed on a Petri dish containing Krebs Ringer bicarbonate—(NaCl, 118.1; KCl, 4.7; KH2PO4, 1.0; MgSo4, 1.0: NaHCO3, 25.0; CaCl2, 2.55; and Glucose, 11.1 mM), bubbled with a mixture of 95% O2 and 5% CO2. The gland, the spongy body and the urethra were removed and the cavernous bodies were desiccated with removal of the tunica albuginea and separated by cutting the fibrous septum between them. The strips of cavernous bodies measuring about 1×1×7 mm were mounted separately in a chamber, one end thereof being secured to an electrode and the other linked to a transducer. […]
The tissue was stretched by a passive force of 2.0 mN and stabilized for 60 minutes, the solution being replaced every 15 minutes. The changes in isometric force were recorded by using an isometric force transducer (World Precision Instruments, Inc., Sarasota, Fla., USA), connected to an amplifier (TBM-4 model; World Precision Instruments, Inc., USA), using software WinDaq Data Acquisition (Dada® Instruments, USA). […]

Swiss mice = experiment: Immunogenicity after subcutaneous immunization (indirect ELISA antibody titer); format: in vivo; details: 10 μg subcutaneous, during the assays
Experimental: FIG. 8—Analysis of the antibody titer. A) Control: adjuvant (aluminum hydroxide). B) antibody titer after administration of the peptide PnTx-19 (10 μG) in different days.
Swiss, male, 20-23 gram mice were divided into 2 groups (Control—Adjuvant: aluminum hydroxide—FIG. 8 A and PnTx-19-10 μG—FIG. 8B), each group containing 4 animals. The mice were immunized by subcutaneous route. 21, 35 and 49 days from the first inoculation, the mice received a reinforcement of the above-mentioned preparations. To verify the presence of antibodies against the PnTx-19, the serum collected from the mouse tails was evaluated 15, 30, 40 and 60 days after the first inoculation through the indirect immunoenzymatic assay (ELISA), as described for other preparations (DEL PINO, F. A. B., BRANDELLI, A., GONZALES, J. C., HENRIQUES, J. A. P., DEWES, H., Effect of antibodies against β-N-acetylglucosaminidase on reproductive efficiency of the bovine tick Boophilus microplus. Vet. Parasitol. 79, 247-255, 1998).

[2] = system: channels for sodium Nav1.5, present in cardiomyocytes; experiment: Patch-clamp of cardiac sodium current; format: cell-based; details: PnTx-19 1 μM
Text: FIG. 6—Effects of the peptide PnTx-19 and of the toxin PnTx2-6 in the cardiac sodium current. A—Effect of the toxin PnTx2-6 on the peak of sodium current (black arrow) and in the inactivation current (gray arrow). C—Effect of the peptide PnTx-19 on the peak of the sodium current and in the inactivation current. D—Course of time of peak in the sodium current, during the perfusion of PnTx-19 and PnTx-26. Each black circle indicates the amplitude of the Ina, measured every 1 second in a membrane potential of −20 mV. The gray bars indicate the moment when the cell was exposed to PnTx2-6 or PnTX-19 (peptide). The bar graphs summarize the effects of PnTx2-6 500 nM (n=7) and of the peptide PnTx-19 (peptide) 1 μM (n=12) in the decay constant (E) and reduction of the sodium current (F). Bars indicate average±SEM, *p<0.05 with respect to the controls.
Patch-clamp experiments were carried out with a view to analyze the effects of the toxin PnTx2-6 and of the peptide PnTx-19 on channels for sodium Nav1.5, present in cardiomyocytes.

[3] = system: cerebrocortical synaptosomes of rats; experiment: Release of L-glutamate from cerebrocortical synaptosomes; format: cell-based, rat; details: 3×10^-5 M, compared with control (untreated synaptosomes), only active concentration of 10-6 to 3×10^-5 M
Experimental: FIG. 4—Effect of different concentrations of the PnTx(19) in releasing L-glutamate—ELISA Plate containing 300 μl/well of the synaptosome mixture (10% final volume) and NADP+(final concentration of 1 mM) in KRH with calcium (2 mM), kept at 37° C. under constant stirring was monitored. One carried out the reading of the fluorescence on the spectrofluorimeter for 2460 seconds. The enzyme GDH (35 units for the final volume of 300 μl) was added to the wells at 60 seconds; at 660 seconds, in different wells, one added different concentrations of PnTx(19) (“10^-5M, 3×10^-5 M, 10^-6 M and 3×10^-6 M”) and the KCI (33 mM). As negative controls, one used wells containing untreated synaptosomes […]. […]
The release of L-glutamate was analyzed according to the proposal of Nicholls et al. 1987 (NICHOLLS, D. et al. J. Neurochem. 49, 5057, 1987). In order to evaluate whether the peptide was capable of inducing release of L-glutamate in cerebrocortical synoptosomes of rats, just as the native toxin, one analyzed the effect thereof at the following concentrations: 10^-5M, 3×10^-5M, 10^-6M, and 2×10^-6 M, […].

[4] = system: cerebrocortical synaptosomes; experiment: Synaptosomal viability (lactate dehydrogenase activity, % lysis vs Triton X-100); format: cell-based, rat; details: for lysis (LDH activity relative to Triton X-100 = 100% of lysis): 60 min incubation
Experimental: FIG. 3—Synaptosomal viability—verified by the activity of the enzyme lactate dehydrogenase, which oxidizes the NADH to NAD+. The latter determines a reduction in the reading (339 nm), which enables one to qualify the enzymatic activity. The reaction mixture was incubated for 60 min with PnTx(19) (10^-5 M; 3×10^-5 M; 10^-6 M; 3×10^-6 M) and the activity percentage evaluated with respect to the lysis triggered by the Triton X-100, considered=100% of lysis. The activity of this enzyme is proportional to the breakage of the synaptosomes, considering that this is an enzyme of the intracellular compartment.
Adult rats (240-300 g) were decapitated the brains were rapidly removed, immersed into homogenization solution (sucrose 0.32 M, EDTA 1 Mm and Dithiotreitol (DTT) 0.25 mM, pH=7.4) and kept in ice, then they were used in preparing the synaptosomes, as previously described by Dunkley et al 1988 (DUNKLEY, P. R.; Brain Research, 441, 59-71, 1988).
As control of the viability of the synaptosomes and also for verifying a possible lytic activity of the peptide, one carried out tests for activity of the enzyme lactate dehydrogenase, according to Kubowistz, Ott, 1943 (KUBOWISTZ, F., OTT, C. Biochem Z. 319, 94-117, 1943).

[5] = Water solubility of the peptide; format: physicochemical; details: acetylated and amidated peptide
Text: With a view to increasing the solubility of the peptide, in the present technology one has synthetized the PnTx(19) with modifications in the N-terminal portion (acetylation) and C-terminal portion (amidation).

isolated perfused heart = experiment: Isolated perfused heart: ventricular pressure, heart rate and ±dP/dt; design: species or system rats; details: peptide 37.8 nmol/L-37.8 μmol/L
Experimental: FIG. 7—Response dose curve of the peptide PnTx-19 and of the Toxin PnTx2-6 in the right (A) and (B) ventricular pressure, derived±dP/dt (C and D) and cardiac rate (E) of rats.
The rats were kept under a controlled cycle of 12 h light/darkness at a stable temperature with free access to water and food. They were decapitated 10 to 15 minutes after intraperitoneal injection of Heparin (200 IU). The thorax was opened, the heart was carefully desiccated and perfused through an aortic tip with Krebs-Ringer solution (KRS) containing (by mmol/L) NaCl (118.4), KCl (4.7), KH2PO4 (1.2), MgSO4.7H2O (1.2), CaCl2.2H2O (1.25), glucose (11.7) and NaHCO3 (26.5). The perfusion flow was kept constant (10 mL/min) at 37° C. and under constant oxygenation (5% CO2 and 95% O2). A balloon connected to a pressure transducer was inserted into the right ventricle, and one monitored the ventricular pressure, heart rate and derivative±dP/dt (FIG. 7). The balloon volume was adjusted to a final diastolic pressure of about 10 mm Hg. After a period for reaching the balance (30 to 40 minutes), 100 μmol/L carrier were injected (control), toxin at concentrations of 37.8 nmol/L-3.78 μmol/L or a peptide at concentrations of 37.8 nmol/L-37.8 μmol/L in perfusion buffer.
The results are the average±SEM. […]

Compound | relaxation of cavernous-body strips [1] | hypersensitivity or death reactions of the animals (Swiss mice) | effect on density of the sodium current [2] | effect on peak of sodium current and inactivation current [2] | release of L-glutamate [3] | release of L-glutamate ([3]; listed as PnTx19) | lysis (LDH activity relative to Triton X-100 = 100% of lysis) ([4]; 3×10^-5 M) | lysis (LDH activity relative to Triton X-100 = 100% of lysis) ([4]; 3×10^-6 M) | lysis (LDH activity relative to Triton X-100 = 100% of lysis) ([4]; 10^-5 M) | effect on synaptosomal viability and/or exocytotic machinery ([4]; 10^-6 M to 3×10^-5 M, compared with control (absence of the peptide)) | lysis (LDH activity relative to Triton X-100 = 100% of lysis) ([4]; 10^-6 M) | solubility in water [5] | effect on ventricular pressure, ±dP/dt and heart rate (isolated perfused heart)
CC(=O)OCC[N+](C)(C)C [acetylcholine] | 81.6% | – | – | – | – | – | – | – | – | – | – | – | –
Ac-GERRQYFWIAWYKLANSKK-NH2 [PnTx(19)] | – | No hypersensitivity or death reactions | this phenomenon was not observed | These effects were not observed | induced an increase in the release of glutamate | capable of inducing significant release of L-glutamate | 2% | 9% | 3.4% | does not affect the synaptosomal viability and/or exocytotic machinery | 6% | water-soluble | did not alter any of these parameters
